In experiment [1] the target is T1, Lck SH2 domain (Homo sapiens, UniProt P06239).
T1 construct: The Fyn, Lck and PLC SH2 domains were expressed in bacteria as GST fusion proteins; GST (cleaved yes); made in house; host or cells: bacteria
The experiment is described as follows: Competition binding assay of radioactive Lck SH2 domain to pYEEI beads. The settings on record: 1.0 μM ligand plus FKBP12 2.0 μM. An excerpt: The pYEEI peptide was coupled to Affi-Gel 10 beads (Biorad) via its amino-group. The Fyn, Lck and PLC SH2 domains were expressed in bacteria as GST fusion proteins. The linker between the GST protein and the SH2 domain contained a thrombin cleavage site and a protein kinase A (PKA) phosphorylation site. The fusion protein on glutathione beads was radioactively labeled at the PKA phosphorylation site using PKA (Sigma). After extensive washing of the beads, the radioactive SH2 domain was released by cleavage with thrombin (Sigma). […] The beads were resuspended in […] PBS and the radioactivity was counted in a liquid scintillation counter after addition of 3 ml scintillation fluid. The radioactivity remaining in the 100 L supernatant was counted in the same way. It was determined that under the conditions described 65% Fyn, 25% PLC and 15%Lck SH2 domain were bound to the beads. […]
To test if the presence of FKBP12 affects the affinity of FKpYEEI for other SH2 domains aside from the PLC SH2 domain, FKpYEEI and FKBP12 were added to binding reactions containing the Fyn, Lck or PLC SH2 domains (FIG. 10). […] The binding reactions were rotated at room temperature for 2 hours, centrifuged and analysed as described above. […]

Experiment [2] addresses T2, Fyn SH2 domain (Homo sapiens, UniProt P06241).
T2 construct: The Fyn, Lck and PLC SH2 domains were expressed in bacteria as GST fusion proteins; GST (cleaved yes); made in house; host or cells: bacteria
Description: Binding constants (Kd) for Fyn SH2 domain, isothermal titration calorimetry. The settings on record: ITC. As for the experimental part:
SLFpYEEI and FKpYEEI are bifunctional molecules that can bind FKBP12 and FKBP52 as well as the Fyn SH2 domain (FIG. 2). The binding constants (Kd values) of the bifunctional molecules for the three proteins were measured using isothermal titration calorimetry (ITC) (Table 1).
FIG. 6 is a graph of the competition binding curves for the Fyn SH2 domain and FKpYEEI as well as the Fyn SH2 domain and the peptide pYEEI in the absence and the presence of FKBP52. Fyn SH2 domain was incubated with peptide beads and increasing concentrations of FKpYEEI in the absence or presence of FKBP52. Specifically, in this assay, in 100 L binding reactions, radioactively labeled Fyn SH2 domain (200 nM) was incubated with 7.5 L of a 1:1 pYEEI bead slurry. Increasing concentrations of FKpYEEI or pYEEI (0.1-20.0 M) were added in the presence or absence of FKBP52 (4.5 M). The binding reactions were rotated at room temperature for 2 hours, centrifuged and analysed as described above. Half maximal binding (IC50) is observed at 750 riM FKpYEEI in the absence of FKBP52. […] Using ITC, the binding constant (Kd) for Fyn SH2 domain binding to the FKpYEEI-FKBP52 complex was determined.
FIG. 13 is a graph of the competition binding curves for the Fyn SH2 domain and SLFpYEEI in the absence and the presence of FKBP12. Fyn SH2 domain was incubated with increasing concentrations of SLFpYEEI in the absence or presence of FKBP12. In this assay, in 100 L binding reactions, radioactively labeled Fyn SH2 domain (200 nM) was incubated with 7.5 L of a 1:1 pYEEI bead slurry. Increasing concentrations of SLFpYEEI (0.1-20.0 M) were added in the presence or absence of FKBP12 (20 M). The binding reactions were rotated at room temperature for 2 hours, centrifuged and analysed as described above. […] This effect was confirmed by ITC.

Where [3] appears, read: ligand alone, no presenter protein, read-out: Binding constant (Kd) for Fyn SH2 domain, free ligand.

pKd: −log10 of the molar value. Where two headings read alike, the source gives them in different places.

T2 sequence (P06241 149-246 limits assumed): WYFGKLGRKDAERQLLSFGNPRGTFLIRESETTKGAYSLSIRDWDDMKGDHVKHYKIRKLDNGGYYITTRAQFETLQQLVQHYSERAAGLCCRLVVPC
T1 sequence (P06239 127-224 limits assumed): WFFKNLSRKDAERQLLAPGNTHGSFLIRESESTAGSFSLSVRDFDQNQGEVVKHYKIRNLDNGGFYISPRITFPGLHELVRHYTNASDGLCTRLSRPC

For orientation: pKd means the Kd on a negative log10 scale, so that one unit is a factor of ten. As to `CC[C@H](C)[C@H](NC(=O)[C@H](CCC(=O)O)NC(=O)[C@H](CCC(=O)O)NC(=O)[C@H](Cc1ccc(OP(=O)(O)O)cc1)NC(=O)COc1cccc([C@@H](CCc2ccc(OC)c(OC)c2)OC(=O)[C@@H]2CCCCN2C(=O)C(=O)C(C)(C)CC)c1)C(=O)O` [SLFpYEEI], in experiment [1], the “Effect of FKBP12 on affinity for the Lck SH2 domain” value was “reduced binding”. For the same molecule, the pKd in experiment [2] (setting [3]) is 6.74.
Turning to `CC[C@H](C)[C@H](NC(=O)[C@H](CCC(=O)O)NC(=O)[C@H](CCC(=O)O)NC(=O)[C@H](Cc1ccc(OP(=O)(O)O)cc1)NC(=O)OCC[C@@H]1/C=C(\C)C[C@H](C)C[C@H](OC)[C@H]2O[C@@](O)(C(=O)C(=O)N3CCCC[C@H]3C(=O)O[C@H](/C(C)=C/[C@@H]3CC[C@@H](O)[C@H](OC)C3)[C@H](C)[C@@H](O)CC1=O)[C@H](C)C[C@@H]2OC)C(=O)O` [FKpYEEI], the “Effect of FKBP12 on affinity for the Lck SH2 domain” value in experiment [1] is on record as “does not affect the affinity”. Further, the pKd in experiment [2] (in complex with FKBP52, read-out: Kd for Fyn SH2 domain binding to the FKpYEEI-FKBP52 complex) is 6.89; in experiment [2] (setting [3]) it was 6.28.

The values above are taken from patent US6921531B2, “Administering bifunctional molecules containing a drug moiety and presenter protein ligand for therapy” (The Board of Trustees of the Leland Stanford Junior …, priority 1998, dated 2005).
